Key:
Rattus norvegicus [1] = assay: Antiinflammatory activity in Wistar albino rat assessed as inhibition of carrageenan-induced increase in paw edema at 10 mg/kg, po after 30 mins (reference value: 30.1 %); assay type: functional; parameters: scale not given: the % may be the effect or the level left
Rattus norvegicus [2] = assay: Antiinflammatory activity in Wistar albino rat assessed as inhibition of carrageenan-induced increase in paw edema at 10 mg/kg, po after 90 mins (reference value: 38.7 %); assay type: functional; parameters: scale not given: the % may be the effect or the level left
[3] = molecular target: T1, Prostaglandin G/H synthase 1 (Rattus norvegicus, UniProt Q63921); assay: Inhibition of rat seminal vesicle COX-1 using arachidonic acid as substrate assessed as reduction of PGG2 to PGH2 incubated for 1 min prior to substrate addition measured after 25 secs by chromogenic assay
T1 sequence (Q63921 whole entry): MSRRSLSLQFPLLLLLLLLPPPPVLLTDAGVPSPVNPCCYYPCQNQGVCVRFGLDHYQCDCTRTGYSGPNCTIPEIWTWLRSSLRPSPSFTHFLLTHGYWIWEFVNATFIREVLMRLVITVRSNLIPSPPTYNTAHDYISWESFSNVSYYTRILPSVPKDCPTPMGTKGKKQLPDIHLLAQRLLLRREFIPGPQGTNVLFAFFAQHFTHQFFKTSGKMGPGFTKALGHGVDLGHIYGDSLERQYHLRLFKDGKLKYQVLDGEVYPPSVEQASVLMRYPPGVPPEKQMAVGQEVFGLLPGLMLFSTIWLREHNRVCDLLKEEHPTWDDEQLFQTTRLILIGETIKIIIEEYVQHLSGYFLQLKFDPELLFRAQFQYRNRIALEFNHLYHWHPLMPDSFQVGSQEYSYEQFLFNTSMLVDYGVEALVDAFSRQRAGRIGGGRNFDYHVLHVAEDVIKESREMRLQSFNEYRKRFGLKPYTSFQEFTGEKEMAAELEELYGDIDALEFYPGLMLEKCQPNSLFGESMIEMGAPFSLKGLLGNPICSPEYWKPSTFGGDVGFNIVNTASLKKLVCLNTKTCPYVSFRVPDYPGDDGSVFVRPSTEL

[4] = molecular target: T2, Prostaglandin G/H synthase 2 (Homo sapiens, UniProt P35354); assay: Inhibition of human recombinant COX-2 expressed in insect cell system using arachidonic acid as substrate assessed as reduction of PGG2 to PGH2 incubated for 1 min prior to substrate addition measured after 25 secs by chromogenic assay
T2 sequence (P35354 whole entry): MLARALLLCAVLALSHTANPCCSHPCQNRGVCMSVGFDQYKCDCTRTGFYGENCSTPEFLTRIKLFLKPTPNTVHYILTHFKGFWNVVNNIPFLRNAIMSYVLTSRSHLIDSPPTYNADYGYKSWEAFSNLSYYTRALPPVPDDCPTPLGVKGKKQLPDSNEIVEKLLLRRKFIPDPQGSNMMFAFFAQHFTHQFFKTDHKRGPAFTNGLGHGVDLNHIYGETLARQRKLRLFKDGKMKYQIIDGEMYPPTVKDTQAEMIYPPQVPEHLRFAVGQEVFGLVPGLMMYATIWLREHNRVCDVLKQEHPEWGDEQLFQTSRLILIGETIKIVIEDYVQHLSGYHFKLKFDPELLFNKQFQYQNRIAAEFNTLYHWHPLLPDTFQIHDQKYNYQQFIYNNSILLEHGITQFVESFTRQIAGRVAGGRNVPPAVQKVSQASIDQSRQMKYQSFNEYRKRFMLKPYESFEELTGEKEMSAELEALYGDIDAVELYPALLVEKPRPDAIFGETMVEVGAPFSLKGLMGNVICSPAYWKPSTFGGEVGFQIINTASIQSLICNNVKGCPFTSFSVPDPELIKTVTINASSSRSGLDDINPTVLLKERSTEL

[5] = Selectivity index, ratio of IC50 for human recombinant COX-2 to IC50 for rat seminal vesicle COX-1; assay type: tissue-based

Compound	IC50 [3] [µM]	IC50 [4] [µM]	Activity (Rattus norvegicus [1]) [%]	Activity (Rattus norvegicus [2]) [%]	Ratio IC50 [5]
CCOC(=O)c1c(C)oc2ccc(Oc3ccc(OC)cc3)cc12	38.1	8.6	9.5	12.3	0.23
CCOC(=O)c1c(C)oc2ccc(Oc3ccc4ccccc4c3)cc12	47.5	15.8			0.35
CS(=O)(=O)Nc1ccc([N+](=O)[O-])cc1Oc1ccccc1 [NIMESULIDE]			14.1	23.4	
CCOC(=O)c1c(C)oc2ccc(Oc3ccccc3C)cc12	35.8	6.1	10.1	20.4	0.17
CCOC(=O)c1c(C)oc2ccc(Oc3ccc(C)cc3)cc12	49.7	4.2	14.1	25.8	0.08
CCOC(=O)c1c(-c2ccccc2)oc2ccc(Oc3ccccc3)cc12	42.5	18.2	15.8	28.4	0.43
CCOC(=O)c1c(-c2ccccc2)oc2ccc(Oc3ccccn3)cc12			25.1	32.6	
CCOC(=O)c1c(-c2ccccc2)oc2ccc(Oc3ccc4ccccc4c3)cc12			20.1	32.6	

More lines, main results first:

IC50 [3] [µM]	IC50 [4] [µM]	Compound	Activity (Rattus norvegicus [1]) [%]	Activity (Rattus norvegicus [2]) [%]	Ratio IC50 [5]
26.2	19.2	CCOC(=O)c1c(-c2ccccc2)oc2ccc(Oc3ccc(C)cc3)cc12	22.1	32.6	0.74
27.9	8.1	CCOC(=O)c1c(C)oc2ccc(Oc3ccccn3)cc12		18.9	0.29
29.8	20.1	CCOC(=O)c1c(-c2ccccc2)oc2ccc(Oc3ccccc3C)cc12	14.8	24.4	0.67
30.8	18.5	CCOC(=O)c1c(C)oc2ccc(Oc3ccccc3)cc12	15.7	23.8	0.59

Reference: ChEMBL document CHEMBL3259612, “Design, synthesis, docking and anti-inflammatory evaluation of novel series of benzofuran based prodrugs” (Bioorg Med Chem Lett, 2014)
